Measurements taken from US7585859B2, “PDE4B inhibitors and uses therefor” (Plexxikon, Inc., priority 2004, dated 2009).

Tests used:
[1] = target: T1, PDE4B: The catalytic domain of human PDE4B from S152-S528 (Homo sapiens, UniProt Q07343); assay: PDE4 IC50 determination by Scintillation Proximity Assay, PDE4B; assay type: biochemical; details: Table 3A, Formula III compounds; read-out: IC50 PDE4B
T1 construct: His6 (N); thrombin cleavage site (N); made in house; host or cells: E. coli
Method in brief: (§1)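 Enzyme was added to compound and [^3H]cAMP, then incubated 30 min at 30° (PDE4B 80 ng/ml; PDE4D 4 ng/ml). Product [^3H]AMP bound to SPA beads and was counted. IC50 was fitted by non-linear regression against DMSO and roflumilast controls.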

PDE4D = target: T2, PDE4D (Homo sapiens, UniProt Q08499); assay: PDE4 IC50 determination by Scintillation Proximity Assay, PDE4D; assay type: biochemical; details: Table 3A, Formula III compounds; read-out: IC50 PDE4D
T2 construct: PDE4D: The catalytic domain of human PDE4B from S3 16-V692; His6 (N); thrombin cleavage site (N); made in house; host or cells: E. coli
T2 sequence (Q08499 380-756): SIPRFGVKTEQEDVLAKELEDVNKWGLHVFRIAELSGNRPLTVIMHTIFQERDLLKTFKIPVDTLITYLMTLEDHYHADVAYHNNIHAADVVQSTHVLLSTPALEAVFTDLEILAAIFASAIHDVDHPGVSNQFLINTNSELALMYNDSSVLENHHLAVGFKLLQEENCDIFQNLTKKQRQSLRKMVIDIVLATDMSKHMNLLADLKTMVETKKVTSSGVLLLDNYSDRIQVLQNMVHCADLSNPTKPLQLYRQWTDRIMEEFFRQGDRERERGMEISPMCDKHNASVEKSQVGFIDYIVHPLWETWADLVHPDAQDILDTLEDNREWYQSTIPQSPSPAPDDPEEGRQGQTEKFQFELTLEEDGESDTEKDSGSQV
Method in brief: as §1

T1 sequence (Q07343 with tags, fused parts or gaps): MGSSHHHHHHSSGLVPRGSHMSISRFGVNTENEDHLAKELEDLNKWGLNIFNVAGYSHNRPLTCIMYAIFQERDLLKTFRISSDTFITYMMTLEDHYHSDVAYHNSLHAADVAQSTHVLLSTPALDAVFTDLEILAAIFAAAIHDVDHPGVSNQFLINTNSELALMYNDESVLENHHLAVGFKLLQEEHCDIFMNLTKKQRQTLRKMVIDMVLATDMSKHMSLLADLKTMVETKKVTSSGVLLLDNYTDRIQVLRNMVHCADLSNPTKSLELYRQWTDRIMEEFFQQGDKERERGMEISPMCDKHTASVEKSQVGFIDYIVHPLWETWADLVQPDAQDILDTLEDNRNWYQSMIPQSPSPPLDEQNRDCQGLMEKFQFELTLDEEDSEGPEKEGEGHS

Row | SMILES | IC50 [1] [µM] | IC50 (PDE4D) [µM]
1 | COc1cc(NS(=O)(=O)c2cc(Cl)c(Cl)s2)c2ncccc2c1 [Compound 3-9, 4,5-Dichloro-thiophene-2-sulfonic acid (6-methoxy-quinolin-8-yl)-amide] | > 10 | > 10
2 | O=S(=O)(Nc1cccc2cccnc12)c1cc(Cl)c(Cl)s1 [Compound 3-10, 4,5-Dichloro-thiophene-2-sulfonic acid quinolin-8-ylamide] | > 10 | > 10
3 | Cc1ccc2cccnc2c1NS(=O)(=O)c1cc(Cl)sc1Cl [Compound 3-11, 2,5-Dichloro-thiophene-3-sulfonic acid (7-methyl-quinolin-8-yl)-amide] | > 10 | > 10
4 | COc1cc(NS(=O)(=O)c2ccc(Cl)s2)c2ncccc2c1 [Compound 3-12, 5-Chloro-thiophene-2-sulfonic acid (6-methoxy-quinolin-8-yl)-amide] | > 10 | > 10
5 | COc1cc(NS(=O)(=O)c2cccs2)c2ncccc2c1 [Compound 3-13, Thiophene-2-sulfonic acid (6-methoxy-quinolin-8-yl)-amide] | > 10 | > 10
6 | COc1cc(NS(=O)(=O)c2ccc(-c3ccnc(SC)n3)s2)c2ncccc2c1 [Compound 3-14, 5-(2-Methylsulfanyl-pyrimidin-4-yl)-thiophene-2-sulfonic acid (6-methoxy-quinolin-8-yl)-amide] | < 10 | < 10
7 | CSc1nccc(-c2ccc(S(=O)(=O)Nc3c(C)ccc4cccnc34)s2)n1 [Compound 3-15, 5-(2-Methylsulfanyl-pyrimidin-4-yl)-thiophene-2-sulfonic acid (7-methyl-quinolin-8-yl)-amide] | > 10 | > 10
8 | CSc1nccc(-c2ccc(S(=O)(=O)Nc3cccc4cccnc34)s2)n1 [Compound 3-16, 5-(2-Methylsulfanyl-pyrimidin-4-yl)-thiophene-2-sulfonic acid quinolin-8-ylamide] | < 10 | < 10
9 | Cn1nc(-c2ccc(S(=O)(=O)Nc3cccc4cccnc34)s2)cc1C(F)(F)F [Compound 3-20, 5-(1-Methyl-5-trifluoromethyl-1H-pyrazol-3-yl)-thiophene-2-sulfonic acid quinolin-8-ylamide] | > 10 | > 10
10 | COc1cc(NS(=O)(=O)c2ccc(-c3cc(C(F)(F)F)n(C)n3)s2)c2ncccc2c1 [Compound 3-21, 5-(1-Methyl-5-trifluoromethyl-1H-pyrazol-3-yl)-thiophene-2-sulfonic acid (6-methoxy-quinolin-8-yl)-amide] | > 10 | > 10
11 | Cc1ccc2cccnc2c1NS(=O)(=O)c1ccc(-c2cc(C(F)(F)F)n(C)n2)s1 [Compound 3-22, 5-(1-Methyl-5-trifluoromethyl-1H-pyrazol-3-yl)-thiophene-2-sulfonic acid (7-methyl-quinolin-8-yl)-amide] | > 10 | > 10
12 | O=S(=O)(Nc1cccc2cccnc12)c1ccc(-c2ccon2)s1 [Compound 3-23, 5-Isoxazol-3-yl-thiophene-2-sulfonic acid quinolin-8-ylamide] | > 10 | > 10
13 | Cc1ccc2cccnc2c1NS(=O)(=O)c1ccc(-c2ccon2)s1 [Compound 3-24, 5-Isoxazol-3-yl-thiophene-2-sulfonic acid (7-methyl-quinolin-8-yl)-amide] | > 10 | > 10
14 | COc1cc(NS(=O)(=O)c2ccc(-c3ccon3)s2)c2ncccc2c1 [Compound 3-25, 5-Isoxazol-3-yl-thiophene-2-sulfonic acid (6-methoxy-quinolin-8-yl)-amide] | > 10 | > 10
15 | Cc1ccc2cccnc2c1NS(=O)(=O)c1ccc(-c2cc(C(F)(F)F)on2)s1 [Compound 3-26, 5-(5-Trifluoromethyl-isoxazol-3-yl)-thiophene-2-sulfonic acid (7-methyl-quinolin-8-yl)-amide] | > 10 | > 10
16 | COc1cc(NS(=O)(=O)c2ccc(-c3cc(C(F)(F)F)on3)s2)c2ncccc2c1 [Compound 3-27, 5-(5-Trifluoromethyl-isoxazol-3-yl)-thiophene-2-sulfonic acid (6-methoxy-quinolin-8-yl)-amide] | > 10 | > 10
17 | O=S(=O)(Nc1cccc2cccnc12)c1ccc(-c2cc(C(F)(F)F)on2)s1 [Compound 3-28, 5-(5-Trifluoromethyl-isoxazol-3-yl)-thiophene-2-sulfonic acid quinolin-8-ylamide] | > 10 | > 10
18 | Cc1ccc2cccnc2c1NS(=O)(=O)c1ccc(-c2ccccn2)s1 [Compound 3-29, 5-Pyridin-2-yl-thiophene-2-sulfonic acid (7-methyl-quinolin-8-yl)-amide] | > 10 | > 10
19 | O=S(=O)(Nc1cccc2cccnc12)c1ccc(-c2ccccn2)s1 [Compound 3-30, 5-Pyridin-2-yl-thiophene-2-sulfonic acid quinolin-8-ylamide] | > 10 | > 10
20 | COc1cc(NS(=O)(=O)c2ccc(-c3ccccn3)s2)c2ncccc2c1 [Compound 3-31, 5-Pyridin-2-yl-thiophene-2-sulfonic acid (6-methoxy-quinolin-8-yl)-amide] | < 10 | > 10
21 | O=C(NCc1ccc(S(=O)(=O)Nc2cccc3cccnc23)s1)c1ccccc1 [Compound 3-32, N-[5-(Quinolin-8-ylsulfamoyl)-thiophen-2-ylmethyl]-benzamide] | > 10 | > 10
22 | Cc1nc(-c2ccc(S(=O)(=O)Nc3cccc4cccnc34)s2)cs1 [Compound 3-33, 5-(2-Methyl-thiazol-4-yl)-thiophene-2-sulfonic acid quinolin-8-ylamide] | < 10 | < 10
23 | O=S(=O)(Nc1cccc2cccnc12)c1ccc(-c2cnco2)s1 [Compound 3-34, 5-Oxazol-5-yl-thiophene-2-sulfonic acid quinolin-8-ylamide] | < 10 | < 10
24 | O=S(=O)(Nc1cccc2cccnc12)c1cc(S(=O)(=O)c2ccccc2)cs1 [Compound 3-37, 4-Benzenesulfonyl-thiophene-2-sulfonic acid quinolin-8-ylamide] | > 10 | > 10
25 | Cc1ccc2cccnc2c1NS(=O)(=O)c1ccc(S(=O)(=O)c2ccccc2)s1 [Compound 3-38, 5-Benzenesulfonyl-thiophene-2-sulfonic acid (7-methyl-quinolin-8-yl)-amide] | > 10 | > 10
26 | Cc1ccc2cccnc2c1NS(=O)(=O)c1cc(S(=O)(=O)c2ccccc2)cs1 [Compound 3-39, 4-Benzenesulfonyl-thiophene-2-sulfonic acid (7-methyl-quinolin-8-yl)-amide] | > 10 | > 10
27 | O=S(=O)(Nc1cccc2cccnc12)c1ccc(S(=O)(=O)c2ccccc2)s1 [Compound 3-40, 5-Benzenesulfonyl-thiophene-2-sulfonic acid quinolin-8-ylamide] | > 10 | > 10
28 | COc1cc(NS(=O)(=O)c2ccc(S(=O)(=O)c3ccccc3)s2)c2ncccc2c1 [Compound 3-41, 5-Benzenesulfonyl-thiophene-2-sulfonic acid (6-methoxy-quinolin-8-yl)-amide] | < 10 | > 10
29 | O=S(=O)(c1ccc(Br)s1)N(c1cccc2cccnc12)S(=O)(=O)c1ccc(Br)s1 [Compound 3-42] | > 10 | > 10
